Assay results from PubChem BioAssay AID179 (DTP/NCI, 2004).
Several values for one entry are separate records, joined by “and”; a condition that tells them apart may be missing. Identical values can stand only once. Activity calls are given as the source filed them.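 How the source made its calls: active means compounds giving half or more protection of infected cells from virus-caused growth loss, again on retest; inactive means the rest.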 Where a SMILES comes first, the peptide text is derived from it. [ ]: non-standard residue; d: D form. pGlu = O=C1CC[CH](C(=O)O)N1

Test system: CEM cells HIV-1 protection, formazan growth assay
Assay: NCI AIDS Antiviral Assay
Conditions: for IC50: measured here: growth of uninfected CEM cells
How it was run: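 Five concentrations of each compound were applied to infected and uninfected human CEM cells. Protection from HIV-1 was judged from growth measured with a soluble formazan assay.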

## N#Cc1c(-c2ccc(Cl)c(Cl)c2)c(-c2ccc(Cl)c(Cl)c2)nn(CC(=O)O)c1=O
  EC50: > 200 µM
  IC50: 55 µM

## N.N.N.N.N.O=S(=O)([O-])S(=O)(=O)[O-].[Co+3]
  EC50: > 42.7 µM
  IC50: > 42.7 µM

## N#C/C(C(=O)Nc1ccc(Cl)cc1)=C(/N)N1CCCCC1
  EC50: > 200 µM
  IC50: > 200 µM

## O=[N+]([O-])c1ccc(-c2noc(-c3ccccc3)c2C2=NCCN2)cc1
  EC50: > 15.5 µM
  IC50: > 15.5 µM

## COC(=O)c1ccc(OCCn2nnc(C(=O)NN)c2C(=O)NN)cc1
  EC50: > 100 µM
  IC50: > 100 µM

## CN(C)CCCOC(=O)C(c1ccccc1)C1(O)CCSCC1 (centres undefined)
  EC50: > 200 µM
  IC50: > 200 µM

## CC1(O)/C(=N/O)CC2CC1C2(C)C (centres undefined)
  EC50: > 1350 µM
  IC50: > 1350 µM

## C/C(O)=C/c1nc2ccccc2[nH]1
  EC50: > 1450 µM
  IC50: 1260 µM

## CN(C)c1nncc2n[nH]nc12
  EC50: > 200 µM
  IC50: > 200 µM

## NC1=Nc2ccccc2Sc2nnc(-c3ccc(Cl)cc3)n21
  EC50: > 200 µM
  IC50: 115 µM

## Fc1ccccc1C=NC12CC3CC(CC(C3)C1)C2
  EC50: > 20.4 µM
  IC50: > 20.4 µM

## O=C(O)C12C3C4C1C1C2C3C1(Br)C41OCCO1 (centres undefined)
  EC50: > 832 µM
  IC50: > 832 µM

## COc1ccc(CCn2nccc2C)cc1
  EC50: > 200 µM
  IC50: > 200 µM

## CCCCCCCC1=NN(c2ccc(S(=O)(=O)O)cc2)C(=O)C1N=O (centres undefined)
  EC50: > 200 µM
  IC50: > 200 µM

## CC(=O)N/C=C/c1cc(O)ccc1O
  outcome: inactive

## COc1ccc(C(C(N)=O)N2CCOCC2)cc1 (centres undefined)
  EC50: 129 µM
  IC50: > 200 µM

## CSC1CC2C(CC1(C)SC)C2(C)C (centres undefined)
  EC50: > 155 µM
  IC50: > 155 µM

## COC(C[C@H]1CCCC[C@]1(O)/C(=C\CO[Si](C(C)C)(C(C)C)C(C)C)Sc1ccccc1)OC
  EC50: > 200 µM
  IC50: 72.4 µM

## Cc1nn(-c2ccccc2)c2[nH]c(=S)cnc12
  EC50: > 200 µM
  IC50: 87.1 µM

## CC(C)CC(NC(=O)C(CO)NC(=O)C(CCCCN)NC(=O)C(CCCCN)NC(=O)C(NC(=O)CNC(=O)C(NC(=O)C(CO)NC(=O)C(NC(=O)C(NC(=O)C(CO)NC(=O)C(CC(N)=O)NC(=O)C1CCC(=O)N1)C(C)C)C(C)C)C(C)O)C(C)C)C(=O)NC(Cc1ccccc1)C(=O)NC(CCC(N)=O)C(=O)O (centres undefined) ([pGlu]NSVVSTGVKKSLFQ-OH; configuration not given here)
  EC50: > 30.9 µM
  IC50: > 30.9 µM

## Cc1nnc2sc(N/N=C/c3ccccc3)nn12
  EC50: > 200 µM
  IC50: > 200 µM

## C=CCN1C(=O)CS/C1=N\NC(=O)CSc1nc2ccccc2c(=O)n1CC
  EC50: > 200 µM
  IC50: > 200 µM

## COc1nn(Cc2ccccn2)c2ccc([N+](=O)[O-])cc12
  EC50: > 200 µM
  IC50: 135 µM

## CCNCCCCNCCCCNCCCCNCCCCNCC
  EC50: > 2190 µM
  IC50: 12.3 µM

## OCCN(CCO)CCn1cnc2c(NCc3ccccc3)ncnc21
  EC50: > 200 µM
  IC50: > 200 µM

## CCCCCCCCCCCc1nnc(N)o1
  outcome: inactive

## O=C1Cc2csc3nc(=O)cc(n23)N1
  EC50: > 120 µM
  IC50: > 120 µM

## O=C(O)c1ccccc1CC1Cc2ccccc2C1=O (centres undefined)
  EC50: > 200 µM
  IC50: > 200 µM

## Cc1ccc(-c2n[nH]c(=O)n2/N=C\c2ccccc2O)cc1
  EC50: > 200 µM
  IC50: > 200 µM

## O=C(NCC(C(=O)OCc1ccccc1)C(=O)OCc1ccccc1)OCc1ccccc1
  EC50: > 200 µM
  IC50: 63.1 µM

## CC(NS(=O)(=O)c1ccccc1)C(=O)O (centres undefined)
  outcome: inactive

## COCCn1cnc2c(Cl)nc(Nc3ccccc3)nc21
  EC50: > 200 µM
  IC50: 28.8 µM

## Cc1ccccc1Nc1nc(NNC(=O)Cc2ccccc2)nc(NNC(=O)c2ccncc2)n1
  EC50: 155 µM
  IC50: 407 µM

## Cn1c(=O)[nH]n(-c2ccc3ccccc3c2)c1=O
  EC50: > 200 µM
  IC50: > 200 µM

## Cc1ccccc1/C=C/c1csnn1
  EC50: > 129 µM
  IC50: > 129 µM

## N#CCCC1C(=O)CCCC1=O
  EC50: > 200 µM
  IC50: > 200 µM

## C=C(CN(C)C)c1ccccn1
  EC50: > 200 µM
  IC50: > 200 µM

## Cn1c(SSc2ccc(-c3cccnc3)n2C)ccc1-c1cccnc1
  EC50: > 200 µM
  IC50: 1.86 µM and 2.45 µM

## O=c1ssc(Cl)c1-c1ccccc1
  EC50: > 200 µM
  IC50: 10.2 µM

## COc1ccc(-c2ccc(CC(=O)O)cc2)cc1OC
  EC50: > 36.3 µM
  IC50: > 36.3 µM

## Cn1cc2ccccc2c1-c1nc(F)nc(Oc2ccc3c(c2)CC[C@@H]2C3CC[C@@]3(C)C2C[C@H](O)[C@@H]3O)n1 (some centres undefined)
  EC50: > 10 µM
  IC50: > 10 µM

## CN1C(=O)C(O)(C2=C3OCOC3=CC(=O)C2=O)c2ccccc21 (centres undefined)
  EC50: > 200 µM
  IC50: 32.4 µM

## Nc1ccc(C(=O)N/C(=C\c2ccc3c(c2)OCO3)c2nc3[nH]c(=S)[nH]c(=O)c3[nH]2)cc1
  outcome: inactive

## O=c1nc2n(cc1F)C1OC(CCl)C(O)C1O2 (centres undefined)
  EC50: > 200 µM
  IC50: > 200 µM

## O=C(c1ccccc1)c1cccc(C(=O)c2ccccc2)c1
  EC50: > 25.1 µM
  IC50: > 25.1 µM

## OC1(C2(O)c3ccccc3-c3ccccc32)c2ccccc2-c2ccccc21
  EC50: > 72.4 µM
  IC50: 41.7 µM

## O=[N+]([O-])c1ccc2c(c1)NP(=S)(Oc1ccccc1)N2 (centres undefined)
  EC50: > 603 µM
  IC50: 81.3 µM

## [Se]c1nc2ccccc2o1
  EC50: > 224 µM
  IC50: 53.7 µM

## O=C(CCN1CCCCC1)N1CCc2c([nH]c3ccccc23)C1c1cccnc1 (centres undefined)
  EC50: > 13.5 µM
  IC50: > 13.5 µM

## CCOc1ccc(N2C(=O)/C(=C/c3ccc(N(CCC#N)CCC#N)cc3)N=C2c2cc([N+](=O)[O-])ccc2Cl)cc1
  EC50: > 33.1 µM
  IC50: 21.4 µM

## COC1/C=C/OC2(C)Oc3c(C)c(O)c4c(c3C2=O)C(=O)C(CO)=C(NC(=O)/C(C)=C\C=C\C(C)C(O)C(C)C(O)C(C)C(OC(C)=O)C1C)C4=O (centres undefined)
  EC50: > 200 µM
  IC50: 91.2 µM

## C/C(=C\C(=O)O)C(=O)N(C)c1ccccc1I
  EC50: > 200 µM
  IC50: > 200 µM

## OCC[N+]12CCCN1CCC2
  EC50: > 1050 µM
  IC50: > 1050 µM

## O=C1CC(NC(=O)C(F)(F)F)c2c(Br)sc(N3CCNCC3)c21 (centres undefined)
  EC50: > 200 µM
  IC50: 162 µM

## COc1ccc2nc3c([N+](=O)[O-])ccc(NCCN(C)C)c3c(N)c2c1
  EC50: > 200 µM
  IC50: 0.794 µM

## COC(=O)c1c2c(n(CCO)c1OC)C(=O)c1ccccc1C2=O
  EC50: > 200 µM
  IC50: 81.3 µM

## CC(=O)Oc1c2oc3ccc(Cl)cc3c(=O)c2c(O)c2ccsc12
  EC50: > 200 µM
  IC50: > 200 µM

## COc1ccccc1OCC(O)CO (centres undefined)
  outcome: inactive

## CCOC(=O)Cc1nc(Cl)c2c(C)c(C)sc2n1
  EC50: > 174 µM
  IC50: 38.9 µM

## COc1cc(/C=C/C(=O)c2ccc(O)c(OC)c2)ccc1O
  EC50: > 200 µM
  IC50: 11.5 µM

## O=C(O)Cc1cccc2c(=O)c3cccc([N+](=O)[O-])c3oc12
  EC50: > 200 µM
  IC50: > 200 µM

## COc1nc(N)c2c3c([nH]c2c1C#N)C(C)(C)c1ccccc1N3C
  EC50: > 30.2 µM
  IC50: 29.5 µM

## N=c1oc2ccc([N+](=O)[O-])cc2cc1C(=O)NCc1ccccc1
  EC50: > 200 µM
  IC50: 14.1 µM

## O=c1[nH]c2nc3ccccc3c(=O)n2/c1=C/c1ccco1
  EC50: > 200 µM
  IC50: > 200 µM

## COC(=O)c1ccc(Oc2nc3ccc(C(F)(F)F)cc3nc2-c2ccccc2)cc1
  EC50: > 200 µM
  IC50: > 200 µM

## CC(=O)Nc1ccc(/C=C/C(=O)c2sc(-c3cccnc3)nc2C)cc1
  EC50: > 51.3 µM
  IC50: > 51.3 µM

## NNC(=O)CC(=O)Nc1ccc(C(=O)O)cc1
  EC50: > 200 µM
  IC50: > 200 µM

## CCCCCOB(OCCCCC)OCCCCC
  outcome: inactive

## Cc1ccc([N+](=O)[O-])cc1NC(=O)C(=O)Cc1cc(=O)oc2cc(O)ccc12
  EC50: > 468 µM
  IC50: 363 µM

## O=C1NC2(CCCCC2)C(OCCO)C12CCCCC2 (centres undefined)
  EC50: > 316 µM
  IC50: > 316 µM

## O=C(c1ccc(Cl)cc1Cl)N(/N=C/C=C/c1ccccc1)c1nnc(-c2ccccc2)c(-c2ccccc2)n1
  EC50: > 13.2 µM
  IC50: > 13.2 µM

## CN(C)c1cc(CNCCSC(c2ccccc2)(c2ccccc2)c2ccccc2)nc(CNCCSC(c2ccccc2)(c2ccccc2)c2ccccc2)c1
  EC50: > 200 µM
  IC50: 3.02 µM

## O=C(c1c2c(cc3c1CC1(Cc4cc5c(cc4C1)CCCC5)C3)CCCC2)C(Br)Br
  EC50: > 100 µM
  IC50: 4.9 µM

## CN(C)NC1=NS(=O)(=O)c2cc3c(cc2S1)N(N(C)C)C(=O)c1cc2c(cc1N(N(C)C)C3=O)SC(NN(C)C)=NS2(=O)=O
  EC50: > 200 µM
  IC50: 141 µM

## COc1c2c(cc3c1C1(O)Cc4ccc5c(c4C[N+]1(C)CC3)OCO5)OCO2 (centres undefined)
  EC50: > 61.7 µM
  IC50: > 61.7 µM

## COC(OC)(c1ccccc1)C(Br)Br
  outcome: inactive

## CCOC(=O)C1C(c2ccco2)C2(C#N)C(=N)OC1(C)C2(C#N)C#N (centres undefined)
  EC50: > 200 µM
  IC50: 64.6 µM

## NC1(C(=O)O)C2CC3CC(C2)CC1C3 (centres undefined)
  outcome: inactive

## CN(CC#N)[C@H]1CCC[C@]1(O)/C=C/[Si](C)(C)C
  EC50: > 28.8 µM
  IC50: > 28.8 µM

## Cc1cn(C2CC(CCCO)C(CO)O2)c(=O)[nH]c1=O (centres undefined)
  EC50: > 871 µM
  IC50: > 871 µM

## CCO/C=N/c1[nH]c(C)c(Cc2ccccc2)c1C#N
  EC50: > 50.1 µM
  IC50: > 50.1 µM

## CC(C)c1ccc(Cc2ccc(C(C)C)c(NC(=O)C(=O)Cc3cnc4ccccc4n3)c2C(C)C)c(C(C)C)c1NC(=O)C(=O)Cc1cnc2ccccc2n1
  EC50: > 13.2 µM
  IC50: > 13.2 µM

## [N-]=[N+]=Nc1cc(=O)n(-c2ccccc2)c(=O)n1-c1ccccc1
  EC50: > 200 µM
  IC50: > 200 µM

## O=C1Nc2ccccc2C12CCCC2
  outcome: inactive

## CC(=O)O[C@H]1CC[C@]2(C)C3CC[C@]4(C)C([C@H](C)CCCC(C)C)CCC4[C@]3(C#N)n3c(=O)n(-c4ccccc4)c(=O)n3[C@]2(C#N)C1 (some centres undefined)
  EC50: > 200 µM
  IC50: > 200 µM

## Cc1ccc2[nH]c3c(c2c1)C1CCC(C(C)(C)C)CC1C1C(=O)N(c2ccc4c(c2)OCO4)C(=O)C31 (centres undefined)
  EC50: > 200 µM
  IC50: 11.5 µM

## CCNC(=S)NNC(=O)C12CC3CC(CC(C3)C1)C2
  EC50: > 200 µM
  IC50: > 200 µM

## OCC12C3C4C5C3C1C5C42 (centres undefined)
  EC50: > 200 µM
  IC50: > 200 µM

## CC[n+]1c(/C=C/c2cc(C(=O)OC)n3c2sc2ccccc23)sc2ccccc21
  EC50: > 200 µM
  IC50: 11 µM
